Reference: ChEMBL document CHEMBL5620408, “Discovery of novel diarypyrimidine derivatives bearing six-membered non-aromatic heterocycles as potent HIV-1 NNRTIs with improved anti-resistance and drug-like profiles” (Eur J Med Chem, 2023)

Assays:
[1] = tested on: Human immunodeficiency virus 1; test: microbe, parasite or virus in culture; details: Human immunodeficiency virus 1, IIIB, MT4
Description: Antiviral activity against HIV1 IIIB infected in MT-4 cells assessed as viral induced cytopathic effect by MTT assay

MT4 = test: Cytotoxicity against human MT4 cells; assay type: toxicity, cell-based
[2] = target: Human immunodeficiency virus type 1 reverse transcriptase (Human immunodeficiency virus 1, UniProt Q72547); test: Inhibition of wild type HIV-1 reverse transcriptase
[3] = Selectivity index, ratio of CC50 for human MT4 cells to EC50 for antiviral activity against HIV RES056
[4] = tested on: Human immunodeficiency virus 1; test: microbe, parasite or virus in culture; details: Human immunodeficiency virus 1, RES056, MT4
Description: Antiviral activity against HIV1 RES056 infected in MT-4 cells assessed as viral induced cytopathic effect by MTT assay

[5] = Cytotoxicity against human MT4 cells assessed as reduction in cell viability by MTT assay; assay type: toxicity, cell-based
[6] = Selectivity index, ratio of CC50 for human MT4 cells to EC50 for antiviral activity against HIV IIIB
[7] = tested on: Human immunodeficiency virus 1; test: Antiviral activity against HIV1 NL4-3 infected in MT4 cells; assay type: functional, organism-based; details: Human immunodeficiency virus 1, NL4-3, MT4
[8] = tested on: Human immunodeficiency virus 1; test: Antiviral activity against HIV1 harboring K103N mutant infected in MT4 cells; assay type: functional, organism-based; details: Human immunodeficiency virus 1, MT4
[9] = tested on: Human immunodeficiency virus 1; test: Antiviral activity against HIV1 harboring F227L/V106A double mutant infected in MT4 cells; assay type: functional, organism-based; details: Human immunodeficiency virus 1, MT4
[10] = tested on: Human immunodeficiency virus 1; test: Antiviral activity against HIV1 harboring Y188L mutant infected in MT4 cells; assay type: functional, organism-based; details: Human immunodeficiency virus 1, MT4
[11] = tested on: Human immunodeficiency virus 1; test: Antiviral activity against HIV1 harboring Y181C mutant infected in MT4 cells; assay type: functional, organism-based; details: Human immunodeficiency virus 1, MT4
[12] = tested on: Human immunodeficiency virus 1; test: Antiviral activity against HIV1 harboring L100I mutant infected in MT4 cells; assay type: functional, organism-based; details: Human immunodeficiency virus 1, MT4
[13] = tested on: Human immunodeficiency virus 1; test: Antiviral activity against HIV1 harboring E138K mutant infected in MT4 cells; assay type: functional, organism-based; details: Human immunodeficiency virus 1, MT4

| EC50 [1] [nM] | IC50 [2] [nM] | EC50 [4] [µM] | EC50 [7] [nM] | SMILES | Activity (MT4) | selectivity ratio [3] | CC50 [5] [µM] | selectivity ratio [6] | EC50 [8] [nM] | EC50 [9] [nM] | EC50 [10] [nM] | EC50 [11] [µM] | EC50 [12] [nM] | EC50 [13] [nM] |
| --- | --- | --- | --- | --- | --- | --- | --- | --- | --- | --- | --- | --- | --- | --- |
| 9 | 100 | > 6.27 | 24.8 | Cc1cc(/C=C/C#N)cc(C)c1Oc1ccnc(Nc2ccc(C3CCN(S(=O)(=O)N(C)C)CC3)cc2)n1 | Non-Toxic | < 1 | 6.27 | 686 | – | – | – | – | – | – |
| 5 | 71 | > 38.6 | 5.7 | CCS(=O)(=O)N1CCC(c2ccc(Nc3nccc(Oc4c(C)cc(/C=C/C#N)cc4C)n3)cc2)CC1 | Non-Toxic | – | > 38.6 | > 7360 | – | – | – | – | – | – |
| 6 | 43 | > 7.75 | 5.74 | Cc1cc(C#N)cc(C)c1Oc1ccnc(Nc2ccc(N3CCN(S(C)(=O)=O)CC3)c(F)c2)n1 | Non-Toxic | < 1 | 7.75 | 1240 | – | – | – | – | – | – |
| 8 | 140 | > 192 | 24.6 | Cc1cc(C#N)cc(C)c1Oc1ccnc(Nc2ccc(N3CCN(S(=O)(=O)C(C)C)CC3)c(F)c2)n1 | Non-Toxic | < 1 | 192 | 24500 | – | – | – | – | – | – |
| 6 | 77 | > 239 | 8.32 | Cc1cc(C#N)cc(C)c1Oc1ccnc(Nc2ccc(N3CCN(S(=O)(=O)C4CC4)CC3)c(F)c2)n1 | Non-Toxic | – | > 239 | > 40600 | – | – | – | – | – | – |
| – | – | – | – | O=C1Nc2ccc(Cl)cc2[C@@](C#CC2CC2)(C(F)(F)F)O1 [EFAVIRENZ] | – | – | > 6.33 | – | – | – | 250 | – | 53 | – |
| 9 | 130 | > 1.73 | 25.5 | Cc1cc(/C=C/C#N)cc(C)c1Oc1ccnc(Nc2ccc(N3CCN(S(=O)(=O)C(C)C)CC3)cc2)n1 | Non-Toxic | < 1 | 1.73 | 193 | – | – | – | – | – | – |
| 8 | 140 | > 78.1 | 28.9 | Cc1cc(/C=C/C#N)cc(C)c1Oc1ccnc(Nc2ccc(N3CCN(S(=O)(=O)N(C)C)CC3)cc2)n1 | Non-Toxic | < 1 | 78.1 | 10200 | – | – | – | – | – | – |
| – | – | 0.037 | 15.3 | Cc1cn([C@H]2C[C@H](N=[N+]=[N-])[C@@H](CO)O2)c(=O)[nH]c1=O [ZIDOVUDINE] | Non-Toxic | – | > 7.48 | – | – | – | – | – | – | – |
| 6 | 83 | > 216 | 6.12 | Cc1cc(/C=C/C#N)cc(C)c1Oc1ccnc(Nc2ccc(N3CCN(S(=O)(=O)C4CC4)CC3)cc2)n1 | Non-Toxic | < 1 | 216 | 37300 | – | – | – | – | – | – |
| 8 | 130 | > 2.38 | 11.9 | Cc1cc(/C=C/C#N)cc(C)c1Oc1ccnc(Nc2ccc(C3CCN(S(=O)(=O)C(C)C)CC3)cc2)n1 | Non-Toxic | < 1 | 2.38 | 298 | – | – | – | – | – | – |

| SMILES | EC50 [1] [nM] | IC50 [2] [nM] | EC50 [4] [µM] | EC50 [7] [nM] | Activity (MT4) | selectivity ratio [3] | CC50 [5] [µM] | selectivity ratio [6] | EC50 [8] [nM] | EC50 [9] [nM] | EC50 [10] [nM] | EC50 [11] [µM] | EC50 [12] [nM] | EC50 [13] [nM] |
| --- | --- | --- | --- | --- | --- | --- | --- | --- | --- | --- | --- | --- | --- | --- |
| Cc1cc(C#N)cc(C)c1Oc1nc(Nc2ccc(C#N)cc2)nc(N)c1Br [ETRAVIRINE] | – | – | 0.076 | – | – | – | > 4.59 | – | 1 | 25 | – | – | – | – |
| Cc1ccnc2c1NC(=O)c1cccnc1N2C1CC1 [NEVIRAPINE] | – | – | > 15 | – | – | – | > 15 | – | 6040 | > 15000 | > 15000 | 7.4 | – | – |
| Cc1cc(/C=C/C#N)cc(C)c1Nc1ccnc(Nc2ccc(C#N)cc2)n1 [RILPIVIRINE] | – | 430 | – | 0.6 | Non-Toxic | – | – | – | – | – | – | – | – | – |
| Cc1cc(/C=C/C#N)cc(C)c1Oc1ccnc(Nc2ccc(CN3CCN(S(C)(=O)=O)CC3)cc2)n1 | – | 33 | – | 0.79 | Non-Toxic | – | – | – | 4 | 210 | 1320 | – | 14 | 9 |
